Assay results from the NIST ThermoML archive (doi:10.1021/je200124h).

How the values were obtained:
[1] = wn = mass fraction of the nth substance listed; settings: for surface tension liquid-gas: Ring tensiometer; for mass density / viscosity: Liquid; for mass density: Pycnometric method
[2] = for surface tension liquid-gas: Ring tensiometer; for viscosity / mass density: 101.33 kPa, Liquid; for viscosity: Capillary tube (Ostwald / Ubbelohde) method; for mass density: Pycnometric method

C1CNCCN1 [piperazine] + O
[1], w1 = 0.0516
Settings | surface tension liquid-gas [mN/m]
303.15 K | 69.56
313.15 K | 67.98
323.15 K | 66.49
333.15 K | 65.17

[1], 101 kPa, w1 = 0.0516
Settings | mass density [kg/m3] | viscosity [mPa·s]
303.15 K | 998.34 | 0.959
313.15 K | 993.9 | 0.775
323.15 K | 989.79 | 0.641
333.15 K | 985.1 | 0.542

O=S1(=O)CCCC1 [sulfolane]
[2]
Settings | mass density [kg/m3] | surface tension liquid-gas [mN/m] | viscosity [mPa·s]
303.15 K | 1262.3 | 47.95 | 10.18
313.15 K | 1254 | 47.22 | 7.85
323.15 K | 1245.7 | 46.61 | 6.15
333.15 K | 1236.5 | 45.74 | 4.4
343.15 K | 1229 | 45.16 | 3.57

OCCN(CCO)CCO [triethanolamine] + O
[1], w1 = 0.4227
Settings | surface tension liquid-gas [mN/m]
303.15 K | 54.5
313.15 K | 53.8
323.15 K | 53
333.15 K | 52.3
343.15 K | 51.4

[1], w1 = 0.4227
Settings | mass density, 303.15 K [kg/m3] | mass density, 313.15 K [kg/m3] | mass density, 323.15 K [kg/m3] | mass density, 333.15 K [kg/m3] | mass density, 343.15 K [kg/m3] | viscosity, 303.15 K [mPa·s] | viscosity, 313.15 K [mPa·s] | viscosity, 323.15 K [mPa·s] | viscosity, 333.15 K [mPa·s] | viscosity, 343.15 K [mPa·s]
101 kPa | – | – | – | – | – | 4.13 | 2.91 | 2.16 | 1.67 | 1.36
101.3 kPa | 1052 | 1048 | 1043 | 1037 | 1032 | – | – | – | – | –

O=S1(=O)CCCC1 [sulfolane] + O
[1], 101 kPa
Settings | mass density, 303.15 K [kg/m3] | mass density, 313.15 K [kg/m3] | mass density, 323.15 K [kg/m3] | mass density, 333.15 K [kg/m3] | mass density, 343.15 K [kg/m3] | viscosity, 303.15 K [mPa·s] | viscosity, 313.15 K [mPa·s] | viscosity, 323.15 K [mPa·s] | viscosity, 333.15 K [mPa·s] | viscosity, 343.15 K [mPa·s]
w1 = 0.0346 | 1003 | 999.7 | 995.2 | 990.1 | 984.3 | 0.84 | 0.69 | 0.58 | 0.49 | 0.43
w1 = 0.0487 | 1007 | 1003 | 998.2 | 993 | 987 | 0.85 | 0.7 | 0.59 | 0.5 | 0.44
w1 = 0.0721 | 1012 | 1007 | 1003 | 998.9 | 991.7 | 0.88 | 0.73 | 0.61 | 0.52 | 0.45
w1 = 0.1022 | 1020 | 1016 | 1010 | 1005 | 998 | 0.92 | 0.76 | 0.64 | 0.55 | 0.48
w1 = 0.1635 | 1038 | 1032 | 1026 | 1020 | 1012 | 1.02 | 0.84 | 0.71 | 0.61 | 0.54

OCCN(CCO)CCO [triethanolamine]
[2]
Settings | mass density [kg/m3] | surface tension liquid-gas [mN/m] | viscosity [mPa·s]
303.15 K | 1119.6 | 45.13 | 405.6
313.15 K | 1113.8 | 43.54 | 208.6
323.15 K | 1107.9 | 41.85 | 116
333.15 K | 1102 | 40.04 | 64.55
343.15 K | 1096.2 | 38.11 | 38.79

CC(O)CNCC(C)O (configuration not stated) [N-(2-hydroxypropyl)-2-hydroxy-1-propanamine] + O
[1], w1 = 0.3873
Settings | surface tension liquid-gas [mN/m]
303.15 K | 45.3
313.15 K | 44.4
323.15 K | 43.2
333.15 K | 42.1
343.15 K | 40.5

[1], w1 = 0.3873
Settings | mass density, 303.15 K [kg/m3] | mass density, 313.15 K [kg/m3] | mass density, 323.15 K [kg/m3] | mass density, 333.15 K [kg/m3] | mass density, 343.15 K [kg/m3] | viscosity, 303.15 K [mPa·s] | viscosity, 313.15 K [mPa·s] | viscosity, 323.15 K [mPa·s] | viscosity, 333.15 K [mPa·s] | viscosity, 343.15 K [mPa·s]
101 kPa | – | – | – | – | – | 5.42 | 3.74 | 2.56 | 1.88 | 1.42
101.3 kPa | 1016 | 1012 | 1006 | 1000 | 994.5 | – | – | – | – | –
